Assay results taken from article PMC3132048, “Treatment of experimental adjuvant arthritis with a novel folate receptor-targeted folic acid-aminopterin conjugate” (Arthritis Research & Therapy, 2011).
Where “and” joins values, the source holds several entries; their conditions need not be identical. Equal values may be shown once. Marks after values point to notes of the source that are not given here.

Legend:
[1] = test system: adjuvant-induced arthritis; experiment: Rat adjuvant-induced arthritis (AIA) model; format: in vivo; settings: for Inhibition in paw edema (%): paw weight day 24; for Body weight change (%): day 24 relative to day 10
Procedure: The rats were then inoculated intradermally (at the base of tail) with 0.5 mg heat-killed M. butyricum (BD Diagnostic Systems) in 100 μl light mineral oil (Sigma-Aldrich, St Louis, MO, USA). […] For each study, two or three rats from the same colony were not induced for arthritis and were used as healthy controls.
Unless noted otherwise, all drug treatments started on day 10 after arthritis induction and lasted for two consecutive weeks with biweekly (BIW, Mondays and Thursdays) or once-weekly (QW, Mondays) dosing regimens.
EC0746 was given subcutaneously (s.c.) in a dosing range of 25 to 1,000 nmol/kg (QW or BIW); MTX was given s.c. or orally at 250 nmol/kg (BIW) or 1,650 nmol/kg (QW); and etanercept (10 mg/kg) was given s.c. once every 3 days for a 12-day span. The QW MTX dosing regimen was to mimic MTX administration in humans, and this particular dose of 1,650 nmol/kg per week (that is, 0.75 mg/kg per week) was reportedly active as an intraperitoneal agent in the AIA model. To distinguish the anti-inflammatory mechanisms of EC0746 and MTX in vivo, a therapeutically irrelevant folate-containing competitor (EC0923, molecular weight 672) was used in 500-fold molar excess to block the activities of EC0746 and MTX at 250 nmol/kg (BIW).
Formalin-fixed hind paws were examined by a board-certified veterinary radiologist who had no knowledge of the study groups. Specific criteria were used to establish a numerical grade of severity for each radiographic change: increased soft tissue volume (0 to 4), narrowing or widening of joint spaces (0 to 5), subchondral erosion (0 to 3), periosteal reaction (0 to 4), osteolysis (0 to 4), subluxation (0 to 3), and degenerative joint changes (0 to 3). Scores are limited to the tarsus, and the maximum possible score per foot was 26 [39]. The histopathological analysis was also performed in a blind fashion by an independent contract laboratory (Bolder BioPATH Inc., Boulder, CO, USA). The arthritic ankles were scored on a scale of 0 to 5 for inflammation, bone resorption, pannus formation, and cartilage damage, with a maximal histology score of 20 per foot.

[2] = biological target: T1, human FRβ (CHO-FRβ cells) (Homo sapiens, UniProt P14207); experiment: Relative affinity assay: displacement of [3H]FA from CHO-FRβ cells; format: binding; settings: 37°C, competitor of [3H]FA, inverse molar ratio to displace 50%
T1 construct: host or cells: CHO-K1 cells
Procedure: The relative affinities of EC0746, AMT, and MTX were determined according to a previously established method except that both KB cells and CHO-FRβ cells were used as the sources of FR [33]. KB cells are a human cancer cell line known for elevated expression of FRα. CHO-FRβ cells were obtained from Manohar Ratnam, Department of Biochemistry and Cancer Biology, The University of Toledo (Toledo, OH, USA). This cell line was originally generated by stable integration and amplification of a human FRβ cDNA expression construct in CHO-K1 cells.

[3] = Preliminary short-term toxicity / MTD in folate-deficient healthy rats; format: in vivo, rat; settings: folate-deficient rats
Procedure: The short-term toxicity and MTD of EC0746 and AMT were evaluated in healthy rats following the standard BIW subcutaneous dosing regimen used for efficacy studies. Further, these animals were put on a folate-deficient diet for ~20 days before treatment to match the folate deficiency status of AIA rats used for therapy. The folate-deficient but nonarthritic animals were thus given increasing doses of EC0746 and AMT for two consecutive weeks on a BIW basis. […] Standard hematologic and blood chemistry parameters were examined as needed along with histopathology.

RAW264.7 cells = format: cell-based, murine
Procedure: RAW264.7 cells in 96-well plates (3.5 × 10^4 cells/well) were treated with 10-fold serial dilutions of EC0746 (≤1 μM) in FFRPMI medium without and with 100-fold molar excess of FA. After a 2-hour exposure, the drug-containing media were replaced and the cells were allowed to incubate further for 70 hours (referred in the text as a 70-hour chase). In comparison, the cells were also treated continuously with AMT for 72 hours. Four hours prior to the end of incubation, LPS was added to the treated cells at a final concentration of 100 ng/ml. Then 100 μl culture supernatants were collected for TNFα analysis by ELISA. The cell viability was assessed by adding XTT to the remaining media for an additional 4 hours following the manufacturer's instructions. To evaluation of a cytostatic effect, RAW264.7 cells seeded at 1 × 10^6 cells/well in six-well plates were subjected to 2-hour exposure and a 70-hour chase with 0, 0.1, 10, and 1000 nM EC0746 without and with excess FA. At the end of the incubation (no LPS added), the surviving cells (that is, still viable cells) were recovered and redistributed in equal numbers in fresh medium for an additional 72 hours. The cell proliferation was again assessed by the XTT assay. All results were expressed as the percentage absorbance (minus background) relative to the untreated control cells.

[4] = preliminary study, 500 nmol/kg s.c. biweekly, low starting arthritis
[5] = preliminary study, 500 nmol/kg s.c. biweekly, more established disease
[6] = s.c., 25 nmol/kg biweekly from day 10
[7] = s.c., 100 nmol/kg biweekly from day 10
[8] = s.c., 250 nmol/kg biweekly from day 10
[9] = s.c., 250 nmol/kg biweekly plus 500-fold excess EC0923
[10] = s.c., 250 nmol/kg biweekly, alone
[11] = s.c., 500 nmol/kg biweekly from day 10
[12] = s.c., 1,000 nmol/kg once weekly

T1 sequence (P14207 17-255): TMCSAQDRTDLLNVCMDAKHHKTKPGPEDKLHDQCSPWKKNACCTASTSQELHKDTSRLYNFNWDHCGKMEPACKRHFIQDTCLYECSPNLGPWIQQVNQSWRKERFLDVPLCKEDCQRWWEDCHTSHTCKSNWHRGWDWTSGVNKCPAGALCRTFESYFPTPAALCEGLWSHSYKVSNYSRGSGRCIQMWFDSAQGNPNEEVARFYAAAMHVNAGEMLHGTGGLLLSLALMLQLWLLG

Nc1nc(N)c2nc(CNc3ccc(C(=O)N[C@@H](CCC(=O)NNC(=O)OCCSSC[C@H](NC(=O)[C@H](CCC(=O)NC[C@H](O)[C@@H](O)[C@H](O)[C@H](O)CO)NC(=O)[C@H](CCC(=O)O)NC(=O)[C@H](CCC(=O)NC[C@H](O)[C@@H](O)[C@H](O)[C@H](O)CO)NC(=O)[C@H](CCC(=O)O)NC(=O)[C@H](CCC(=O)NC[C@H](O)[C@@H](O)[C@H](O)[C@H](O)CO)NC(=O)CC[C@H](NC(=O)c4ccc(NCc5cnc6nc(N)[nH]c(=O)c6n5)cc4)C(=O)O)C(=O)O)C(=O)O)cc3)cnc2n1 [EC0746]
Improvement in paw edema (percentage increase in paw weight) [1, 4]: ~ 10 fold | Improvement in splenomegaly (percentage increase in spleen weight) [1, 4]: threefold | Arthritis score maintained throughout study ([1]; preliminary study, 500 nmol/kg s.c. biweekly, mean starting arthritis score ~0 on day 10, score max 16): ~ 1 | Maximum reduction in arthritic scores ([1]; preliminary study, 500 nmol/kg s.c. biweekly, mean starting arthritis score ~2 (established disease)): ~ 50% | Improvement in paw edema (percentage increase in paw weight) [1, 5]: ~ 2.5 fold | Improvement in splenomegaly (percentage increase in spleen weight) [1, 5]: twofold | Splenomegaly (percentage increase in spleen weight relative to healthy rats) [1, 6]: 73 ± 8^e % | Inhibition in paw edema (%) [1, 6]: 0 ± 25^d % | Body weight change (%) ([1]; s.c., 25 nmol/kg biweekly): -17 ± 1% | Splenomegaly (percentage increase in spleen weight relative to healthy rats) [1, 7]: 52 ± 13^e % | Inhibition in paw edema (%) [1, 7]: 35 ± 11^d % | Body weight change (%) ([1]; s.c., 100 nmol/kg biweekly): -14 ± 1% | Animals with no lesions (histopathology of ankle) ([1]; s.c., 250 nmol/kg biweekly): three out of five | Decrease in summed histology scores ([1]; s.c., 250 nmol/kg biweekly): 94% | Reduction in dorsal to ventral paw thickness ([1]; s.c., 250 nmol/kg biweekly): 94% | Splenomegaly (percentage increase in spleen weight relative to healthy rats) [1, 8]: 25 ± 6^e % | Inhibition in paw edema (%) [1, 8]: 91 ± 4^d % | Decrease in inflammation score (histology) [1, 9]: 24% | Decrease in summed histology scores [1, 9]: ~ 19% | Reduction in dorsal to ventral paw thickness [1, 9]: 22% | Anti-arthritic activity with co-administered EC0923 ([1]; s.c., 250 nmol/kg biweekly plus 500-fold molar excess EC0923 (125 μmol/kg), all clinical parameters): nearly completely blocked | Radiographic analysis of arthritic paws ([1]; s.c., 250 nmol/kg biweekly plus EC0923 125 μmol/kg): significant joint erosions | Anti-arthritic activity (arthritis score, body weight, paw and spleen weights) [1, 10]: highly effective | Radiographic analysis of arthritic paws [1, 10]: minimal radiographic changes | Body weight change (%) ([1]; s.c., 250 nmol/kg biweekly): -0.5 ± 3% | Improvement in splenomegaly ([1]; s.c., 250 nmol/kg per dose biweekly, printed >3-fold to fourfold): > 3 fold | Splenomegaly (percentage increase in spleen weight relative to healthy rats) [1, 11]: 37 ± 7% | Inhibition in paw edema (%) [1, 11]: 91 ± 9% | Body weight change (%) ([1]; s.c., 500 nmol/kg biweekly): 0.4 ± 4% | Loss of original body weight due to arthritis progression [1, 12]: ~ 7% | Splenomegaly (percentage increase in spleen weight relative to healthy rats) [1, 12]: 39 ± 5% | Inhibition in paw edema (%) ([1]; s.c., 1,000 nmol/kg once weekly (days 10 and 17)): 72 ± 12% | Body weight change (%) [1, 12]: -7 ± 3% | Relative affinity value (FA = 1) [2]: 0.27 | Gastrointestinal-associated side effects at respective MTD doses ([3]; compared with AMT): less of the gastrointestinal-associated side effects than AMT | Difference in toxicity versus AMT (less toxic) ([3]; s.c., ratio of MTDs): ~ 40 fold and 40 fold | IC50 (RAW264.7 cells; 2-hour pulse, 70-hour chase, read-out: Relative 50% inhibitory concentration, inhibition of cell proliferation (XTT)): ~0.3 nM | Antiproliferative effect competitive in presence of excess FA (RAW264.7 cells; 100-fold molar excess FA): 100% | Proliferation of surviving cells redispersed into fresh medium (RAW264.7 cells; additional 72-hour incubation after 2-hour pulse plus 70-hour chase): could no longer divide | Maximum growth inhibition (RAW264.7 cells; concentrations ≥1 nM, 2-hour pulse, 70-hour chase): ~ 50%
